Reference: PMC8305768, “Design, Synthesis and Antiparasitic Evaluation of Click Phospholipids” (Molecules, 2021)
Counter-ions that a name gives are not always drawn.

How the values were obtained:
[1] = tested on: T. cruzi Y strain intracellular amastigotes; test: Activity against T. cruzi Y strain intracellular amastigotes (HG39 cell-line, parasite load); type: cell-based; details: Trypanosoma cruzi, read-out: Parassite Load Reduction (%)
Description: T. cruzi epimastigotes (Y strain) were obtained by axenic cultivation in the LIT medium, supplemented with 10% FBS (Cultilab, São Paulo, Brazil). Cultures were maintained at […] for 4–5 days until they reached the log growth phase. New cultures were made every 4 days from the initial inoculum of 2 × 10^6 parasites/mL. T. cruzi trypomastigotes (Y strain) were maintained in culture by the infection of LLC-MK2 (ATTC-CCL7) epithelial cells. This cell line was cultured in […] tissue culture bottles (TPP) in RPMI 1640 medium (Gibco), (Thermo Fischer Scientific, Carlsbad, CA, USA) supplemented with 10% FBS (Gibco) (Thermo Fischer Scientific, Carlsbad, CA, USA). Cultures were maintained at 37 °C under 5% CO2 atmosphere, and RPMI 1640 medium and SFB were exchanged every 48 h. After confluence, the cultures were treated with 1 mL of a mixture of trypsin and versene (Sigma, São Paulo, Brazil) (0.2 and 0.002%, respectively). After 24 h, a subconfluence culture was infected with the trypomastigotes in the approximate proportion of 10:1 parasites/cell. From five to seven days post infection, the trypomastigote stage was obtained from the culture supernatant. Alternatively (Figure 2), T. cruzi strain Y was maintained as previously described.

CYP1A2 = target: T1, CYP1A2 (Homo sapiens, UniProt P05177); test: Cytochrome P450 inhibition assay (P450-Glo) CYP1A2; type: in vitro ADME; details: compounds 10 μM; miltefosine 10 μM or 1 μM
T1 construct: purchased Corning Inc; host or cells: baculovirus-infected insect cells
T1 sequence (P05177 2-516 limits assumed): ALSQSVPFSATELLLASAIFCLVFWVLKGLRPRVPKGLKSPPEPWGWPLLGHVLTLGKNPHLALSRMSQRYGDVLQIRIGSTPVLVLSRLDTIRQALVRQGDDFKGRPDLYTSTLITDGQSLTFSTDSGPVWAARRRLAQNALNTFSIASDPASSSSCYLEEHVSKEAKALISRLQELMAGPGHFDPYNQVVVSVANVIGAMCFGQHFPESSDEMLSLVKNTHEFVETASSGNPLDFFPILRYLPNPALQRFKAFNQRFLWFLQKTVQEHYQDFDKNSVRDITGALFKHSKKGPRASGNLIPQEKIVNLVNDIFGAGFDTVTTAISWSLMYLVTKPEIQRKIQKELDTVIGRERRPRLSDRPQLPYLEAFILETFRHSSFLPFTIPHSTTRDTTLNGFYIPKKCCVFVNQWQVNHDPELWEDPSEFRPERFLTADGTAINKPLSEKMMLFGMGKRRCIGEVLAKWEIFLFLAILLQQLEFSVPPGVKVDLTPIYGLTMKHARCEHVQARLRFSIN
Excerpt: Cytochrome (CYP) P450 inhibition assay: These assays made use of microsomal preparations of CYP450 (1A2, 2C9, 2C19, 2D6 and 3A4) from baculovirus-infected insect cells (Corning Inc., Corning, NY, USA) and cytochrome c reductase (and cytochrome b5 for CYP450 3A4). For detection of CYP450 activity, the luminescence-based P450-Glo (Promega Corp., Madison, WI, USA) assay system was used that contained a luminogenic CYP450 substrate, lyophilized luciferin detection reagent and reconstitution buffer. The substrates were luciferin derivatives of CYP450-specific substrates that produce (4S)-4,5-dihydro-2-(6-hydroxybenzothiazolyl)-4-thiazolecarboxylic acid (D-luciferin) after cleavage by CYP450 (CYP450 3A4, luciferin-IPA; CYP450 2C19, luciferin-H EGE; CYP450 2C9, luciferin-H; CYP450 2D6, luciferin-ME EGE; CYP450 1A2, luciferin-1A2). CYP450 reactions were initiated by addition of the NADPH regeneration system to the enzyme–substrate mixture with the luciferin detection reagent stopping the reaction and the D-luciferin being converted to oxyluciferin under the production of light being proportional to the CYP450 activity. The CYP450 assays were performed using the Tecan Fluent liquid-handling automation platform (Tecan Group Ltd., Mannedorf, Switzerland) in the 384-well assay format. Compounds were added into an empty 384-well plate (100 nL/well in 1% v/v DMSO) using the Echo 550 Liquid Handler followed by the addition of 5 μL/well of the CYP450/substrate mixture and incubation for 30 min at 37 °C, after which the reaction was initiated by the addition of the 5 μL/well NADPH regeneration system. After a further 30-min incubation at 37 °C, the CYP450 reaction was stopped and the luciferase reaction was simultaneously initiated by addition of 10 μL/well of luciferin detection reagent, followed by an additional 30-min incubation at 37 °C. The luminescence signal was detected using an Infinite M1000 PRO plate reader (Tecan Group Ltd., Mannedorf, Switzerland). The NCs yielded 0% inhibition (1% v/v DMSO) and standard CYP450 specific inhibitors were used as positive controls, yielding 100% inhibition (CYP450 1A2, alpha-naphthoflavone; CYP450 2C9, sulfaphenazole; CYP450 2C19, troglitazone; CYP450 2D6, quinidine; CYP450 3A4, ketoconazole).
Data analysis: The screening data were obtained in triplicate and analysed using ActivityBase (IDBS, Guildford, UK), and outlier elimination in the control wells was performed using the 3-sigma method. Unless stated, dose–response experiments were performed in the 11-point format with the IC50 value, Hill slope, minimum signal and maximum signal for each dose–response curve obtained using a four-parameter logistic fit in the XE module of ActivityBase (IDBS).

[2] = tested on: T. b. brucei L427 WT bloodstream form; test: Activity against T. brucei bloodstream forms (resazurin-based assay); type: cell-based; details: Trypanosoma brucei, 72 h
Description: Trypanosoma brucei brucei Lister 427 bloodstream forms were grown at 37 °C, 5% CO2 in complete HMI-9 medium supplemented with 10% foetal calf serum (FCS) and 100 UI/mL of penicillin/streptomycin. […] The efficacy of compounds against T. brucei bloodstream forms was evaluated using a modified resazurin-based assay previously described. Mid-log bloodstream forms were added to an equal volume of serial dilutions of compounds in supplemented complete HMI-9 medium at a final cell density of 5 × 10^3/mL. Following incubation for 72 h at 37 °C 5% CO2, 20 μL of a 0.5 mM resazurin solution was added and plates were incubated for a further 4 h under the same conditions. Fluorescence was measured at 540 nm and 620 nm excitation and emission wavelength, respectively, using a Synergy 2 Multi-Mode Reader (Biotek, Winooski, VT, USA).

[3] = tested on: L. donovani strain BPK190 amastigotes; test: Activity against L. donovani intramacrophage amastigotes (bone marrow-derived macrophages, qPCR); type: cell-based, Leishmania donovani; details: Leishmania donovani, Macrophage, infected bone marrow-derived macrophages, 48 h, read-out: Parassite Load Reduction (%)
Description: L. donovani strain BPK 190 [55] was cultivated at 25 °C in modified Medium199 (Sigma-Aldrich, with 20% heat-inactivated FCS, 40 mM HEPES pH 7.4, 0.2% NaHCO3, 100 μM adenin, 1.2 μg/mL 6-biopterin and 10 μg/mL haem, with 1 × Pen/Strep/l-glutamine (Sigma, Saint Louis, MI, USA), pH 7.0).
Activity against L. donovani strain BPK190 was tested in vitro using bone marrow-derived macrophages as host cells. Infection was established for 24 h prior to the addition of compounds from 10 mM stocks in DMSO. Parasite load was determined 48 h later by quantifying Leishmania actin DNA relative to mouse actin DNA using real time qPCR as described.

[4] = Cytotoxicity against THP-1 macrophages (MTT); type: cell-based; details: human, PMA-differentiated THP-1 macrophages, read-out: Toxicity CC50 ± SD Or CC50 Interval Estimation
Description: The effect of compounds selected compounds on THP-1-derived macrophages was assessed by the colorimetric MTT assay (3-(4,5-dimethylthiazol-2-yl)-2,5-diphenyl tetrazolium bromide). Briefly, 1 × 10^5 THP-1 cells/mL were differentiated into macrophages by addition of 20 ng/mL of phorbol-myristate 13-acetate (PMA, Sigma, Saint Louis, MI, USA) for 18 h, followed by replacement with fresh medium for 24 h. Cells were incubated with 100 µL of compounds ranging from 100 to 1 µM after dilution in the RPMI complete medium containing a maximum amount of 1% DMSO. After incubation for 72 h, the medium was removed and 100 µL of 0.5 mg/mL MTT solution diluted in RPMI was added. Plates were incubated for an additional 4 h to allow viable cells to convert MTT into a purple formazan product. Solubilization of formazan crystals was achieved by the addition of 2-propanol and absorbance was read at 570 nm using a Synergy 2 Multi-Mode Reader (Biotek, Winooski, VT, USA). Cytotoxicity was evaluated by the determination of the CC50 value (drug concentration that reduced the percentage of viable cells in 50%) and calculated by non-linear regression analysis using GraphPad Prism version 8.1.1 for Windows (GraphPad Software, San Diego, CA, USA).

% inhibition ± SD at 10 μΜ CYP1A2 (CYP1A2) | SMILES | inhibition of growth at 10 µM [1] | inhibition at 10 µM ([2]; 10 μM, read-out: Single Dose Assay 10μM Mean Inhibitory Activity (%) ± SD) | inhibition of growth at 5 µM [3] | CC50 at 72 h [4] | IC50 ([2]; read-out: Dose Response Curves IC50 ± SD)
3.18% | C[N+](C)(C)CCOP(=O)([O-])OCCCCCCCCCCCn1cc(CCCCCCCCN)nn1 [Compound 36, 11-(4-(8-aminooctyl)-1H-1,2,3-triazol-1-yl)undecyl (2-(trimethylammonio)ethyl) phosphate inner salt] | 0% | 30 ± 7% | 20.3% | > 100 µM | 
–2.91% | C[N+](C)(C)CCOP(=O)([O-])OCCCCCCCCCCCn1cc(CCCCCCCCC(=O)OCc2ccccc2)nn1 [Compound 30, 11-(4-(9-(benzyloxy)-9-oxononyl)-1H-1,2,3-triazol-1-yl)undecyl (2-(trimethyl ammonio)ethyl) phosphate inner salt] | 69.7% |  | 0% | > 100 µM | 
 | CC1CS(=O)(=O)CCN1/N=C/c1ccc([N+](=O)[O-])o1 (centres unmarked) [Nifurtimox, reference compound] | 81.2% |  |  |  | 
 | N=C(N)c1ccc(OCCCCCOc2ccc(C(=N)N)cc2)cc1 [Pentamidine, reference compound] |  |  |  |  | 0.00155 ± 0.00024 µM
